Data published in patent US10793528B2 (priority 2016, dated 2020).

Legend:
[1] = biological target: human mu-opioid receptor (hMOP) (Homo sapiens (Human), UniProt P35372); format: binding
[2] = biological target: human delta-opioid receptor (hDOP) (Homo sapiens (Human), UniProt P41143); test: hDOP receptor binding assay (SPA, [3H]2-D-Ala-deltorphin II); conditions: concentration not given; neighbouring values @1μM
[3] = biological target: human nociceptin/orphanin FQ peptide receptor (hNOP) (Homo sapiens (Human), UniProt P41146); format: binding

| SMILES | hMOP % @1μM (given instead of Ki) [1] [% @1μM] | DOP % [2] | hNOP % @1μM (given instead of Ki) [3] [% @1μM] |
| --- | --- | --- | --- |
| CCN(C)[C@]1(c2ccccc2)CC[C@]2(CC1)CN(CC(C)(C)C(N)=O)C(=O)N2 [SC_5064, CIS-3-[8-(Ethyl-methyl-amino)-2-oxo-8-phenyl-1,3-diazaspiro[4.5]decan-3-yl]-2,2-dimethyl-propionamide] | 3 | (DOP 20%) | 3 |
| CCN(C)C1(c2ccccc2)CCC2(CC1)CN(CC(C)(C)C(N)=O)C(=O)N2C (stereo not drawn) [SC_5066, CIS-3-[8-(Ethyl-methyl-amino)-1-methyl-2-oxo-8-phenyl-1,3-diazaspiro[4.5]decan-3-yl]-2,2-dimethyl-propionamide] | 7 | (DOP 22%) | 0 |
